“Also recorded” adds a separate entry of the source.
Columns and labels:
[1] = target: T1, Glucocorticoid Receptor (GR) (Homo sapiens, UniProt P04150); experiment: GeneBLAzer nuclear hormone receptor specificity assay, GR; format: cell-based; details: 0.25 to 25 μM; listed as ISP358-2
T1 sequence (P04150 524-758 limits assumed): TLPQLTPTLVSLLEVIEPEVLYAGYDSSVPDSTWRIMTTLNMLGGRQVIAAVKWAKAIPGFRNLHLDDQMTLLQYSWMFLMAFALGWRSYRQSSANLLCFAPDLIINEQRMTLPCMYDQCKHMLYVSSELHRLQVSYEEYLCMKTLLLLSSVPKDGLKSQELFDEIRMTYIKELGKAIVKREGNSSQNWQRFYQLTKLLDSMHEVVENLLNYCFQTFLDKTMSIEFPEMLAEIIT

[2] = target: T2, Mineralocorticoid Receptor (MR) (Homo sapiens, UniProt P08235); experiment: GeneBLAzer nuclear hormone receptor specificity assay, MR; format: cell-based; details: 0.25 to 25 μM; listed as ISP358-2
T2 sequence (P08235 726-964 limits assumed): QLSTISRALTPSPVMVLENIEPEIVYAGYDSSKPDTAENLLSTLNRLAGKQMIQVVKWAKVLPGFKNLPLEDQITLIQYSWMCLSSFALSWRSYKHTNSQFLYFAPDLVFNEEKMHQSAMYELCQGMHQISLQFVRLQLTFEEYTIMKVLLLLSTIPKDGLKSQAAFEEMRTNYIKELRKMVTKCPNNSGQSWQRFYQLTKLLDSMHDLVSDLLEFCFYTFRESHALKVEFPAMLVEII

[3] = target: T3, Peroxisome Proliferator-Activated Receptor (PPARδ) (Homo sapiens, UniProt Q03181); experiment: GeneBLAzer nuclear hormone receptor specificity assay, PPARδ; format: cell-based; details: 0.25 to 25 μM; listed as ISP358-2
T3 sequence (Q03181 211-439 limits assumed): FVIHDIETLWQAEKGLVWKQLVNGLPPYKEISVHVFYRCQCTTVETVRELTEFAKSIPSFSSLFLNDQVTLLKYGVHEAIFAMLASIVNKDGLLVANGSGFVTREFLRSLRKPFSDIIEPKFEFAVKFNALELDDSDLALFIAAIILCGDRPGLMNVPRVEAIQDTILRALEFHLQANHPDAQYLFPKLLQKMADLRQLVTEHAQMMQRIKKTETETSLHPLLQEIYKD
Method: Nuclear Hormone Receptor Specificity Assay. Selectivity measurements were performed using the SelectScreen™ cell-based nuclear receptor profiling service from ThermoFisher (FIG. 3A). This is a FRET-based assay that uses GeneBLAzer™ technology. It detects ligand binding to and activation of a nuclear hormone receptor of interest (ligand binding domain; LBD) that is fused to a GAL4 DNA binding domain (DBD), which upon activation induces expression of beta-lactamase. The assay has a Z′≥0.5 in agonist mode. […]

ERα = target: T4, ERα (Homo sapiens, UniProt P03372); experiment: Cell-based luciferase reporter assay, full length ERα, antagonist mode
T4 construct: employs a full length and native ER (comprised of an ER LBD and an ER DBD)
T4 sequence (P03372 1-595): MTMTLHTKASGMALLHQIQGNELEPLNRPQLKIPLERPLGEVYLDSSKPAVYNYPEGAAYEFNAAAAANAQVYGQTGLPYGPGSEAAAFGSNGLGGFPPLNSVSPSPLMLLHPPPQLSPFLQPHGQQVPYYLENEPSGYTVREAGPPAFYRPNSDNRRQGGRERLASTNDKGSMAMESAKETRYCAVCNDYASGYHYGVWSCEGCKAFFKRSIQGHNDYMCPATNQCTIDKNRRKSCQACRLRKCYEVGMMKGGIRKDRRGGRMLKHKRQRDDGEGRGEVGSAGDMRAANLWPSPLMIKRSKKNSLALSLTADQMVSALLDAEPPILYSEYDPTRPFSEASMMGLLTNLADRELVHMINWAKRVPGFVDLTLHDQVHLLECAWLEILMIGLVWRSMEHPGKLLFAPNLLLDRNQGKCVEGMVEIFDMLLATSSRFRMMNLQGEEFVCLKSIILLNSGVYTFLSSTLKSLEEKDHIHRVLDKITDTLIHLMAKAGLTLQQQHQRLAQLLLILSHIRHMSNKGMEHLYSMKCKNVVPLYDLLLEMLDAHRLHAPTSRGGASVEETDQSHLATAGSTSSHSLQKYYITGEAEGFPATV

CYP2C9 = target: T5, CYP2C9 (Homo sapiens, UniProt P11712); experiment: P450-Glo CYP450 inhibition, CYP2C9; format: in vitro ADME; details: highest concentration 62.6 μM
T5 construct: purchased Promega Corporation (Madison, WI)
T5 sequence (P11712 whole entry): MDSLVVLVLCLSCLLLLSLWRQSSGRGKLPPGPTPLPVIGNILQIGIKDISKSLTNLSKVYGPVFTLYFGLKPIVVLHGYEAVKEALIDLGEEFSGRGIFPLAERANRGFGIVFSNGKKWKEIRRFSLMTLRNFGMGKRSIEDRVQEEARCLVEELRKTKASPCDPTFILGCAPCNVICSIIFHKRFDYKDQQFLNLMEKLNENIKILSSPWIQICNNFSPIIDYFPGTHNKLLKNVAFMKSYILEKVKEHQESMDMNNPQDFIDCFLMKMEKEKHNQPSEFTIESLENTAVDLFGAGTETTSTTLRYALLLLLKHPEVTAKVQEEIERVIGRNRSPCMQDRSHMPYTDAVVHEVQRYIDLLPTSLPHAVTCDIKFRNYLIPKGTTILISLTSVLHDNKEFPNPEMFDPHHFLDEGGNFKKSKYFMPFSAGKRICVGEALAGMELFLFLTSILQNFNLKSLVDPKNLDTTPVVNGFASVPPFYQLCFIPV
Method: (§1) In Vitro Druggability Assays-CYP450 Binding, hERG & Nephelometry. The P450-Glo™ Screening System from Promega Corporation (Madison, WI) was used to measure CYP450 (cytochrome P450) inhibition, as described in the kit instructions. Assays were run in 96-well white plates (Corning® 3912), and luminescence was measured on a SpectraMax M5 instrument (FIG. 6). The luminescence signal is proportional to the amount of luciferin product formed by the CYP reaction. Compounds were prepared in DMSO, then an eight-step 1:2 dilution series was made in DMSO. […] After adding the relevant Cytochrome P450 enzyme, the plate was incubated at 37° C. for 10 minutes to allow components to come to temperature. Next, the NADPH regeneration system was added to activate the reaction on a luminogenic P450-GloTM substrate, and incubated at 37° C. for 10-30 min, according to kit instructions for each CYP enzyme. The enzyme reaction was stopped by the addition of Luciferin Detection Reagent and luminescence of the plate was read in a Spectramax M5 (Molecular Devices) after a 20 min incubation at room temperature. Data were normalized to positive controls (α-naphthoflavone for CYP1A2, sulfaphenazole for CYP2C9, quinidine for CYP2D6, and ketoconazole for CYP3A4). Data analysis was with Prism software, as described above.

CYP2D6 = target: T6, CYP2D6 (Homo sapiens, UniProt P10635); experiment: P450-Glo CYP450 inhibition, CYP2D6; format: in vitro ADME; details: highest concentration 62.6 μM; listed as ISP358-2
T6 construct: purchased Promega Corporation (Madison, WI)
T6 sequence (P10635 whole entry): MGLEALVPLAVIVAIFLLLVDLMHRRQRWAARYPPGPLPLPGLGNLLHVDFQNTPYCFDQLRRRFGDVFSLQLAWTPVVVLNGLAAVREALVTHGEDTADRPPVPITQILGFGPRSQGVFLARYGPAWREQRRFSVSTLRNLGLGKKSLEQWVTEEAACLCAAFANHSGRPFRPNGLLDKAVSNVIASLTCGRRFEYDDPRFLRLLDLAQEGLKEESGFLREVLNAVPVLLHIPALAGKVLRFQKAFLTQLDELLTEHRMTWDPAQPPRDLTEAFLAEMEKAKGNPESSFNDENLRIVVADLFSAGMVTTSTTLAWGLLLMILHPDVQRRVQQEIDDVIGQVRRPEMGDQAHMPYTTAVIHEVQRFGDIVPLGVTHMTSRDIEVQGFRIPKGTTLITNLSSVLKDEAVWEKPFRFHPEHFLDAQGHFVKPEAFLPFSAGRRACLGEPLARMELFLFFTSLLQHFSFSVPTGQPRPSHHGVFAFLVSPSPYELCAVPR
Method: as §1

CYP3A4 = target: T7, CYP3A4 (Homo sapiens, UniProt P08684); experiment: P450-Glo CYP450 inhibition, CYP3A4; format: in vitro ADME; details: highest concentration 62.6 μM
T7 construct: purchased Promega Corporation (Madison, WI)
T7 sequence (P08684 whole entry): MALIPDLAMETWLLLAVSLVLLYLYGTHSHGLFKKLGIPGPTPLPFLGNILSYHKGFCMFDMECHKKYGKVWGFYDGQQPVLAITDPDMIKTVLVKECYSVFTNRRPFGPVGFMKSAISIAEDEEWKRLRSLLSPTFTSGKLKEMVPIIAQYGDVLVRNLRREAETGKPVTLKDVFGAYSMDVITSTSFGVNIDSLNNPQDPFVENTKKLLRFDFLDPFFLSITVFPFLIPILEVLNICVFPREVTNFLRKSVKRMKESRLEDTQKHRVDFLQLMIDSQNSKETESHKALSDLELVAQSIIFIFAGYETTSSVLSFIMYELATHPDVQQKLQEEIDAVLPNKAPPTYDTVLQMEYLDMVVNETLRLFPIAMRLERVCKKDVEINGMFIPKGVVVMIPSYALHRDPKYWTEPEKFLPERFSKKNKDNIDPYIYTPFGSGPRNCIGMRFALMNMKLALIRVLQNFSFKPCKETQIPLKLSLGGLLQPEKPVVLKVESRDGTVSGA
Method: as §1

[4] = Nephelometry (aggregation / solubility)
ovariectomized mice = experiment: Object recognition memory consolidation test

Compound: OC[C@H]1CC[C@H](c2ccc(O)cc2)CC1 [Compound 16]
- agonist activity, GR [1]: not an agonist; also recorded: no significant off-target activity
- agonist activity, MR [2]: not an agonist; also recorded: no significant off-target activity
- agonist activity, PPARδ [3]: not an agonist; also recorded: no significant off-target activity
- ERα antagonist activity (ERα; concentrations up to 10 μM, listed as ISP358-2): No measurable antagonist activity
- IC50 (ERα; inhibition of estradiol-induced transcription, read-out: ERα antagon. IC50): > 10 µM
- CYP2C9 inhibition (CYP2C9): no significant inhibition
- IC50 (CYP2C9): 34 ± 4.7 µM
- CYP2D6 inhibition (CYP2D6): no significant inhibition
- CYP3A4 inhibition (CYP3A4): no significant inhibition
- IC50 (CYP3A4): 89 ± 18 µM
- solubility / aggregation by nephelometry [4]: reasonably soluble
- object recognition: time with novel object / memory consolidation (ovariectomized mice; IP injection, 0.5 mg/kg, listed as ISP358-2, 0.5 mg/kg): exhibited a significant preference for the novel object relative to chance; also recorded: most effectively enhanced consolidation; also recorded: enhanced memory consolidation
- object recognition: time with novel object / memory consolidation (ovariectomized mice; IP injection, 5 mg/kg): somewhat of a trend for the 5 mg/kg ISP358-2 to prefer the novel object
- object recognition: time with novel object / memory consolidation (ovariectomized mice; dorsal hippocampal infusion, 10 pg/hemisphere, tested 48 h after training, chance 15 s): Neither the vehicle nor 10 pg ISP358-2 groups showed a preference for the novel object
- object recognition: time with novel object / memory consolidation (ovariectomized mice; dorsal hippocampal infusion, 100 pg/hemisphere, tested 48 h after training, listed as ISP358-2): spent significantly more time than chance with the novel object; also recorded: enhanced memory consolidation; also recorded: significantly increased time was spent
- object recognition: time with novel object / memory consolidation (ovariectomized mice; dorsal hippocampal infusion, 1 ng/hemisphere, tested 48 h after training, listed as ISP358-2): spent significantly more time than chance with the novel object; also recorded: enhanced memory consolidation; also recorded: significantly increased time was spent
- object recognition: time with novel object / memory consolidation (ovariectomized mice; oral gavage, 0.5 mg/kg, listed as ISP358-2, 0.5 mg/kg): spent significantly more time with the novel object relative to chance; also recorded: enhanced memory consolidation
- object recognition: time with novel object / memory consolidation (ovariectomized mice; oral gavage, 5 mg/kg, listed as ISP358-2, 5 mg/kg): spent significantly more time with the novel object relative to chance; also recorded: most effective; also recorded: enhanced memory consolidation

Reference: patent US20240327421A1 (Marquette University, priority 2017, published 2024)
